Tests used:
Format in all cases: functional
[1] = tested on: Mus musculus; assay: In vivo anti-inflammatory activity determined by inhibition of oxazolone-induced allergic contact dermatitis (ACD) in mouse up on tropical application; design: concentration or dose not given beside the values
[2] = tested on: Mus musculus; assay: In vivo antiinflammatory activity of 0.4 uM concentration of compound was determined by inhibition of oxazolone-induced allergic contact dermatitis (ACD) in mouse up on tropical application
[3] = tested on: Mus musculus; assay: In vivo antiinflammatory activity of 4 uM concentration of compound was determined by inhibition of oxazolone-induced allergic contact dermatitis (ACD) in mouse up on tropical application
[4] = tested on: Mus musculus; assay: In vivo antiinflammatory activity of 40 uM concentration of compound was determined by inhibition of oxazolone-induced allergic contact dermatitis (ACD) in mouse up on tropical application
[5] = tested on: Sus scrofa; assay: In vivo antiinflammatory activity of 130 uM concentration of compound was determined by inhibition of oxazolone-induced allergic contact dermatitis (ACD) in pig up on tropical application
[6] = tested on: Sus scrofa; assay: In vivo antiinflammatory activity of 40 uM concentration of compound was determined by inhibition of oxazolone-induced allergic contact dermatitis (ACD) in pig up on tropical application
[7] = tested on: Sus scrofa; assay: In vivo antiinflammatory activity of 400 uM concentration of compound was determined by inhibition of oxazolone-induced allergic contact dermatitis (ACD) in pig up on tropical application
[8] = tested on: Mus musculus; assay: In vivo antiinflammatory activity of compound was determined by inhibition of oxazolone-induced allergic contact dermatitis (ACD) in mouse up on tropical application
[9] = tested on: Mus musculus; assay: In vivo antiinflammatory activity of 0.04 uM concentration of compound was determined by inhibition of oxazolone-induced allergic contact dermatitis (ACD) in mouse up on tropical application

SMILES	Inhibition [1]	also measured
C=C(CCc1ccccc1)[C@H]1CC[C@]2(C)[C@@H]1CC[C@H]1[C@H]2CC[C@H]2C(C)(C)[C@@H](O)CC[C@]12C	36%	
CC(NCc1ccccc1)[C@H]1CC[C@]2(C)[C@@H]1CC[C@H]1[C@H]2CC[C@H]2C(C)(C)[C@@H](O)CC[C@]12C (stereo in doubt; 4bB)	15%	
C[C@H](NC(=O)/C=C/c1ccccc1)[C@H]1CC[C@]2(C)[C@@H]1CC[C@H]1[C@H]2CC[C@H]2C(C)(C)[C@@H](O)CC[C@]12C	11%	
CC(CCc1ccccc1)[C@H]1CC[C@]2(C)[C@@H]1CC[C@H]1[C@H]2CC[C@H]2C(C)(C)[C@@H](O)CC[C@]12C (stereo in doubt; 15A)	30%	
CC(NCCc1ccc(S(N)(=O)=O)cc1)[C@H]1CC[C@]2(C)[C@@H]1CC[C@H]1[C@H]2CC[C@H]2C(C)(C)[C@@H](O)CC[C@]12C (stereo not given in full)	16%	
CC1(C)[C@@H](O)CC[C@]2(C)[C@H]3CC[C@@H]4[C@@H](C(N)CCc5ccccc5)CC[C@@]4(C)[C@@H]3CC[C@@H]12 (stereo in doubt; 13A)	30%	
C=C(C/C=C/C(C)(C)O)[C@@H]1CC[C@]2(C)[C@@H]1CC[C@@H]1[C@@]3(C)CC[C@H](O)C(C)(C)[C@@H]3CC[C@]12C		Inhibition [2]: 6%; Inhibition [3]: 37%; Inhibition [4]: 65%; Inhibition [5]: 43%; Inhibition [6]: 28%
CC1(C)[C@@H](O)CC[C@]2(C)[C@H]3CC[C@@H]4[C@@H](C(O)CCc5ccccc5)CC[C@@]4(C)[C@@H]3CC[C@@H]12 (stereo in doubt; 11B)	14%	
CCCCNC(C)[C@H]1CC[C@]2(C)[C@@H]1CC[C@H]1[C@H]2CC[C@H]2C(C)(C)[C@@H](O)CC[C@]12C (stereo in doubt; 4aB)	28%	
CC(NCC(=O)OC(C)(C)C)[C@H]1CC[C@]2(C)[C@@H]1CC[C@H]1[C@H]2CC[C@H]2C(C)(C)[C@@H](O)CC[C@]12C (stereo in doubt; 4dA)	31%	
CC(NCCc1ccccc1-n1ccnc1)[C@H]1CC[C@]2(C)[C@@H]1CC[C@H]1[C@H]2CC[C@H]2C(C)(C)[C@@H](O)CC[C@]12C (stereo not given in full)	13%	
CC(NCC(=O)OC(C)(C)C)[C@H]1CC[C@]2(C)[C@@H]1CC[C@H]1[C@H]2CC[C@H]2C(C)(C)[C@@H](O)CC[C@]12C (stereo in doubt; 4dB)	21%	
CC(NCc1nc2ccccc2[nH]1)[C@H]1CC[C@]2(C)[C@@H]1CC[C@H]1[C@H]2CC[C@H]2C(C)(C)[C@@H](O)CC[C@]12C (stereo not given in full)	27%	
CC(C)CCC(=O)N[C@@H](C)[C@H]1CC[C@]2(C)[C@@H]1CC[C@H]1[C@H]2CC[C@H]2C(C)(C)[C@@H](O)CC[C@]12C	33%	
C[C@@H]1C[C@H]2[C@@H]3CCC4=CC(=O)C=C[C@]4(C)[C@@]3(F)[C@@H](O)C[C@]2(C)[C@@]1(O)C(=O)CO [DEXAMETHASONE]		Inhibition [2]: 41%; Inhibition [7]: 32%; Inhibition [8]: 42%; Inhibition [9]: 16%; Inhibition [4]: 35%; Inhibition [5]: 35%; Inhibition [6]: 20%
CC1(C)[C@@H](O)CC[C@]2(C)[C@H]3CC[C@@H]4[C@@H](C(N)CCc5ccccc5)CC[C@@]4(C)[C@@H]3CC[C@@H]12 (stereo in doubt; 13B)	6%	
CC1(C)[C@@H](O)CC[C@]2(C)[C@H]3CC[C@@H]4[C@@H](C(CCc5ccccc5)NCc5ccccc5)CC[C@@]4(C)[C@@H]3CC[C@@H]12 (stereo in doubt; 12A)	22%	
C[C@H](N)[C@H]1CC[C@]2(C)[C@@H]1CC[C@H]1[C@H]2CC[C@H]2C(C)(C)[C@@H](O)CC[C@]12C (stereo in doubt; 5A)	38%	
CCCCNC(C)[C@H]1CC[C@]2(C)[C@@H]1CC[C@H]1[C@H]2CC[C@H]2C(C)(C)[C@@H](O)CC[C@]12C (stereo in doubt; 4aA)	30%	
CC1(C)[C@@H](O)CC[C@]2(C)[C@H]3CC[C@@H]4[C@@H](C(CCc5ccccc5)NCc5ccccc5)CC[C@@]4(C)[C@@H]3CC[C@@H]12 (stereo in doubt; 12B)	15%	
CC1(C)[C@@H](O)CC[C@]2(C)[C@H]3CC[C@@H]4[C@@H](C(O)CCc5ccccc5)CC[C@@]4(C)[C@@H]3CC[C@@H]12 (stereo in doubt; 11A)	12%	
CC(CCc1ccccc1)[C@H]1CC[C@]2(C)[C@@H]1CC[C@H]1[C@H]2CC[C@H]2C(C)(C)[C@@H](O)CC[C@]12C (stereo in doubt; 15B)	29%	
CC(=O)[C@H]1CC[C@]2(C)[C@@H]1CC[C@@H]1[C@@]3(C)CC[C@H](O)C(C)(C)[C@@H]3CC[C@]12C	12%	
CC(NCc1ccccc1)[C@H]1CC[C@]2(C)[C@@H]1CC[C@H]1[C@H]2CC[C@H]2C(C)(C)[C@@H](O)CC[C@]12C (stereo in doubt; 4bA)	28%	
C[C@H](N)[C@H]1CC[C@]2(C)[C@@H]1CC[C@H]1[C@H]2CC[C@H]2C(C)(C)[C@@H](O)CC[C@]12C (stereo in doubt; 5B)	41%	
